Results as given in patent US8513220B2, “Aromatic compounds having sphingosine-1-phosphonate (S1P) receptor activity” (Allergan, Inc., priority 2010, dated 2013).
pEC50: −log10 of the molar value.

Legend:
human S1P1 receptor = target: T1, human S1P1 receptor (Homo sapiens, UniProt P21453); assay: GTP γ35S binding assay for S1P1 activity; assay type: biochemical; conditions: for activation at 5 µM: S1P1 receptor GTPγ^35S, read-out: % STIMULATION @ 5 μM; for pEC50: S1P1 receptor, membranes, compounds 0.08 to 5,000 nM, read-out: GTPγ^35S EC50
T1 construct: expressed in transfected cells; membranes used
Protocol: Novel compounds were synthesized and tested for S1P1 activity using the GTP γ^35S binding assay. These compounds may be assessed for their ability to activate or block activation of the human S1P1 receptor in cells stably expressing the S1P1 receptor. GTP γ^35S binding was measured in the medium containing (mM) HEPES 25, pH 7.4, MgCl2 10, NaCl 100, dithitothreitol 0.5, digitonin 0.003%, 0.2 nM GTP γ^35S, and 5 μg membrane protein in a volume of 150 μl. Test compounds were included in the concentration range from 0.08 to 5,000 nM unless indicated otherwise. Membranes were incubated with 100 μM 5′-adenylylimmidodiphosphate for 30 min, and subsequently with 10 μM GDP for 10 min on ice. Drug solutions and membrane were mixed, and then reactions were initiated by adding GTP γ^35S and continued for 30 min at 25° C. Reaction mixtures were filtered over Whatman GF/B filters under vacuum, and washed three times with 3 mL of ice-cold buffer (HEPES 25, pH7.4, MgCl2 10 and NaCl 100). Filters were dried and mixed with scintillant, and counted for ^35S activity using a […]. Agonist-induced GTP γ^35S binding was obtained by subtracting that in the absence of agonist. Binding data were analyzed using a non-linear regression method. In case of antagonist assay, the reaction mixture contained 10 nM S1P in the presence of test antagonist at concentrations ranging from 0.08 to 5000 nM.
Activity potency: S1P1 receptor from GTP γ^35S: nM, (EC50)

lymphocytes in blood = assay: Lymphopenia assay in mice (in vivo blood lymphocyte depletion); conditions: female C57BL6 mice, 10 mg/Kg subcutaneous
Protocol: Test drugs are prepared in a solution containing 3% (w/v) 2-hydroxy propyl β-cyclodextrin (HPBCD) and 1% DMSO to a final concentration of 1 mg/ml, and subcutaneously injected to female C57BL6 mice (CHARLES RIVERS) weighing 20-25 g at the dose of 10 mg/Kg. Blood samples are obtained by puncturing the submandibular skin with a Goldenrod animal lancet at 5, 24, 48, 72, and 96 hrs post drug application. Blood is collected into microvettes (SARSTEDT) containing EDTA tripotassium salt. Lymphocytes in blood samples are counted using a HEMAVET Multispecies Hematology System, HEMAVET HV950FS (Drew Scientific Inc.). (Hale, J. et al Bioorg. & Med. Chem. Lett. 14 (2004) 3351).
A lymphopenia assay in mice; as previously described, was employed to measure the in vivo blood lymphocyte depletion after dosing with: • (3-{[5-(4-Hexyl-phenyl)-6-thiophen-2-yl-pyridin-2-ylmethyl]-amino}-propyl)-phosphonic acid, Compound 2 (FIG. 1); • (3-{[6-(5-Fluoro-thiophen-2-yl)-5-(4-hexyl-phenyl)-pyridin-2-ylmethyl]-amino}-propyl)-phosphonic acid, Compound 3 (FIG. 2); • (3-{[5-(4-Hexyl-3-propyl-phenyl)-6-thiophen-2-yl-pyridin-2-ylmethyl]-amino}-propyl)-phosphonic acid, Compound 4 (FIG. 3); • [3-({5-[4-(3-Phenyl-propyl)-phenyl]-6-thiophen-2-yl-pyridin-2-ylmethyl}-amino)-propyl]-phosphonic acid, Compound 5 (FIG. 4); • (3-{[5-(4-Hexyl-phenyl)-6-thiophen-3-yl-pyridin-2-ylmethyl]-amino}-propyl)-phosphonic acid, Compound 6 (FIG. 5); • (3-{[5-(4-Hexyl-phenyl)-6-oxazol-4-yl-pyridin-2-ylmethyl]-amino}-propyl)-phosphonic acid, Compound 7 (FIG. 6); • (3-{[6-Furan-2-yl-5-(4-hexyl-phenyl)-pyridin-2-ylmethyl]-amino}-propyl)-phosphonic acid, Compound 9 (FIG. 7); • [3-({6-Phenyl-5-[4-(3-phenyl-propyl)-phenyl]-pyridin-2-ylmethyl}-amino)-propyl]-phosphonic acid, Compound 14 (FIGS. 8) and • (3-{[5-(4-Hexyl-3-propyl-phenyl)-6-phenyl-pyridin-2-ylmethyl]-amino}-propyl)-phosphonic acid, Compound 16 (FIG. 9).
These S1P agonist (or modulator) is useful for S1P-related diseases, and exemplified by the lymphopenia in vivo response. In general, test drugs Compound 3 and 16 were prepared in a solution containing 3% (w/v) 2-hydroxy propyl β-cyclodextrin (HPBCD) and 1% DMSO to a final concentration of 1 mg/ml, and subcutaneously injected to female C57BL6 mice (CHARLES RIVERS) weighing 20-25 g at the dose of 10 mg/Kg. Blood samples were obtained by puncturing the submandibular skin with a Goldenrod animal lancet at 5, 24, 48, and 72 hrs post drug application. Blood was collected into microvettes (SARSTEDT) containing EDTA tripotassium salt. Lymphocytes in blood samples were counted using a HEMAVET Multispecies Hematology System, HEMAVET HV950FS (Drew Scientific Inc.). Results are shown in the following figures below that depict lowered lymphocyte count after 5 hours (<1 number of lymphocytes 10^3/μL blood).

T1 sequence (P21453 whole entry): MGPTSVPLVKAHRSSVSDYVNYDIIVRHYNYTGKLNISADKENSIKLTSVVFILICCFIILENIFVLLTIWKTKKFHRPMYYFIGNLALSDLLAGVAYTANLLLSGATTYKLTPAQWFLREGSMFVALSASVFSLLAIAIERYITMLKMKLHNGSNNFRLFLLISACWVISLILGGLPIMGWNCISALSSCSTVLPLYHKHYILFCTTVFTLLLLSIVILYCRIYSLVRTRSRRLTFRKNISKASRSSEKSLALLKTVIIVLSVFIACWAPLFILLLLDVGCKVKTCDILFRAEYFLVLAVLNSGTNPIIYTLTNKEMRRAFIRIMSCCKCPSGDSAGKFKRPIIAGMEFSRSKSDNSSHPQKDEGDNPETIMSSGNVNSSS

## CCCCCCc1ccc(-c2ccc(CNCCCP(=O)(O)O)nc2-c2nccs2)cc1 [Compound 8, (3-{[5-(4-Hexyl-phenyl)-6-thiazol-2-yl-pyridin-2-ylmethyl]-amino}-propyl)-phosphonic acid]
Human S1P1 receptor
  activation at 5 µM: 89.3%
  pEC50: 8.19

## O=P(O)(O)CCCNCc1ccc(-c2ccc(CCCc3ccccc3)cc2)c(-c2cccc(Cl)c2)n1 [Compound 13, [3-({6-(3-Chloro-phenyl)-5-[4-(3-phenyl-propyl)-phenyl]-pyridin-2-ylmethyl}-amino)-propyl]-phosphonic acid]
Human S1P1 receptor
  activation at 5 µM: 64%
  pEC50: 5.61

## CCCCCCCCc1ccc(-c2ccc(CNCCCP(=O)(O)O)cc2-c2ccccc2)cn1 [Compound 22, (3-{[6-(6-Octyl-pyridin-3-yl)-biphenyl-3-ylmethyl]-amino}-propyl)-phosphonic acid]
Human S1P1 receptor
  activation at 5 µM: 89.7%
  pEC50: 6.11

## O=P(O)(O)CCCNCc1ccc(-c2ccc(CCC(F)(F)C(F)(F)C(F)(F)C(F)(F)F)cc2)c(-c2ccccc2)c1 [Compound 11, (3-{[4-(3,3,4,4,5,5,6,6,6-Nonafluoro-hexyl)-[1,1′;2′,1″]terphenyl-4′-ylmethyl]-amino}-propyl)-phosphonic acid]
Human S1P1 receptor
  activation at 5 µM: 71.8%
  pEC50: 6.38

## CCCCCCc1ccc(-c2ccc(CNCCCP(=O)(O)O)nc2-c2ccccc2)cc1 [Compound 27, (3-{[5-(4-Hexyl-phenyl)-6-phenyl-pyridin-2-ylmethyl]-amino}-propyl)-phosphonic acid]
Human S1P1 receptor
  activation at 5 µM: 112%
  pEC50: 6.60

## CCCCCCc1ccc(-c2ccc(CNCCCP(=O)(O)O)cc2-c2ccccc2)cn1 [Compound 20, (3-{[6-(6-Hexyl-pyridin-3-yl)-biphenyl-3-ylmethyl]-amino}-propyl)-phosphonic acid]
Human S1P1 receptor
  activation at 5 µM: 94.7%
  pEC50: 6.08

## O=P(O)(O)CCCNCc1ccc(-c2ccc(CCCc3ccccc3)cc2)c(-c2cccs2)n1 [Compound 5, [3-({5-[4-(3-Phenyl-propyl)-phenyl]-6-thiophen-2-yl-pyridin-2-ylmethyl}-amino)-propyl]-phosphonic acid]
Lymphocytes in blood; after 48 h of drug application
  number of lymphocytes found in the blood: reduced
Human S1P1 receptor
  activation at 5 µM: 91.1%
  pEC50: 8.63

## CCCCCOc1ccc(-c2ccc(CNCCCP(=O)(O)O)nc2-c2ccccc2)cc1 [Compound 19, (3-{[5-(4-Pentyloxy-phenyl)-6-phenyl-pyridin-2-ylmethyl]-amino}-propyl)-phosphonic acid]
Human S1P1 receptor
  activation at 5 µM: 95.5%
  pEC50: 6.45

## CCCCCCc1ccc(-c2ccc(CNCCCP(=O)(O)O)nc2-c2cccs2)cc1CCC [Compound 4, (3-{[5-(4-Hexyl-3-propyl-phenyl)-6-thiophen-2-yl-pyridin-2-ylmethyl]-amino}-propyl)-phosphonic acid]
Lymphocytes in blood; after 72 h of drug application
  number of lymphocytes found in the blood: reduced
Human S1P1 receptor
  activation at 5 µM: 79.1%
  pEC50: 8.11

## CCCCCCc1ccc(-c2ccc(CNCCCP(=O)(O)O)nc2-c2ccccc2)cc1CCC [Compound 16, (3-{[5-(4-Hexyl-3-propyl-phenyl)-6-phenyl-pyridin-2-ylmethyl]-amino}-propyl)-phosphonic acid]
Lymphocytes in blood; after 5 h of drug application
  number of lymphocytes found in the blood: reduced
Human S1P1 receptor
  activation at 5 µM: 73.1%
  pEC50: 7.53

## CCCCCCc1ccc(-c2ccc(CNCCCP(=O)(O)O)nc2-c2ccc(F)s2)cc1 [Compound 3, (3-{[6-(5-Fluoro-thiophen-2-yl)-5-(4-hexyl-phenyl)-pyridin-2-ylmethyl]-amino}-propyl)-phosphonic acid]
Lymphocytes in blood; after 72 h of drug application
  number of lymphocytes found in the blood: reduced
Human S1P1 receptor
  activation at 5 µM: 111%
  pEC50: 7.60

## CCCCCCc1ccc(-c2ccc(CNCCCP(=O)(O)O)nc2-c2cocn2)cc1 [Compound 7, (3-{[5-(4-Hexyl-phenyl)-6-oxazol-4-yl-pyridin-2-ylmethyl]-amino}-propyl)-phosphonic acid]
Lymphocytes in blood; after 24 h of drug application
  number of lymphocytes found in the blood: reduced
Human S1P1 receptor
  activation at 5 µM: 86.1%
  pEC50: 9.06

## CCCCCOc1ccc(-c2ccc(CNCCCP(=O)(O)O)nc2-c2cccc(F)c2)cc1 [Compound 17, (3-{[6-(3-Fluoro-phenyl)-5-(4-pentyloxy-phenyl)-pyridin-2-ylmethyl]-amino}-propyl)-phosphonic acid]
Human S1P1 receptor
  activation at 5 µM: 83.9%
  pEC50: 5.66

## CCCCCCc1ccc(-c2ccc(CNCCCP(=O)(O)O)nc2-c2cccs2)cc1 [Compound 2, (3-{[5-(4-Hexyl-phenyl)-6-thiophen-2-yl-pyridin-2-ylmethyl]-amino}-propyl)-phosphonic acid]
Lymphocytes in blood; after 24 h of drug application
  number of lymphocytes found in the blood: reduced
Human S1P1 receptor
  activation at 5 µM: 68.1%
  pEC50: 8.28

## O=P(O)(O)CCCNCc1ccc(-c2ccc(CCCc3ccccc3)cc2)c(-c2ccccc2)n1 [Compound 14, [3-({6-Phenyl-5-[4-(3-phenyl-propyl)-phenyl]-pyridin-2-ylmethyl}-amino)-propyl]-phosphonic acid]
Lymphocytes in blood; after 5 h of drug application
  number of lymphocytes found in the blood: reduced
Human S1P1 receptor
  activation at 5 µM: 86.6%
  pEC50: 7.03

## CCCCCOc1ccc(-c2ccc(CNCCCP(=O)(O)O)nc2-c2ccc(F)cc2)cc1 [Compound 18, (3-{[6-(4-Fluoro-phenyl)-5-(4-pentyloxy-phenyl)-pyridin-2-ylmethyl]-amino}-propyl)-phosphonic acid]
Human S1P1 receptor
  activation at 5 µM: 104%
  pEC50: 6.33

## CCCCCCc1ccc(-c2ccc(CNCCCP(=O)(O)O)nc2-c2ccco2)cc1 [Compound 9, (3-{[6-Furan-2-yl-5-(4-hexyl-phenyl)-pyridin-2-ylmethyl]-amino}-propyl)-phosphonic acid]
Lymphocytes in blood; after 48 h of drug application
  number of lymphocytes found in the blood: reduced
Human S1P1 receptor
  activation at 5 µM: 88.6%
  pEC50: 9.36

## CCCCCCc1ccc(-c2ccc(CNCCCP(=O)(O)O)nc2-c2ccsc2)cc1 [Compound 6, (3-{[5-(4-Hexyl-phenyl)-6-thiophen-3-yl-pyridin-2-ylmethyl]-amino}-propyl)-phosphonic acid]
Lymphocytes in blood; after 48 h of drug application
  number of lymphocytes found in the blood: reduced
Human S1P1 receptor
  activation at 5 µM: 76.9%
  pEC50: 8.04

## O=P(O)(O)CCCNCc1ccc(-c2ccc(CCCc3ccccc3)cc2)c(-c2ccccc2)c1 [Compound 12, (3-{[4-(3-Phenyl-propyl)-[1,1′;2′,1″]terphenyl-4′-ylmethyl]-amino}-propyl)-phosphonic acid]
Human S1P1 receptor
  activation at 5 µM: 64%
  pEC50: 6.20

## CCCCCCc1ccc(-c2ccc(CNCCCP(=O)(O)O)cc2-c2ccccc2)nc1 [Compound 1, (3-{[6-(5-Hexyl-pyridin-2-yl)-biphenyl-3-ylmethyl]-amino}-propyl)-phosphonic acid]
Human S1P1 receptor
  activation at 5 µM: 79.4%
  pEC50: 6.50
